# Measured values as given in ChEMBL document CHEMBL3885881, “DrugMatrix”.
# Species on record: Rattus norvegicus
# Test: DrugMatrix - Regimen: Daily Repeat
# Assay type: toxicity, organism-based, Sprague-Dawley
# Set-up: regimen Daily Repeat, gender Male, age 6-8 weeks
# Conditions: in vivo, po, 15 mg/kg, route oral GAVAGE, dose level Low, vehicle .5 % CMC; for ABSOLUTE BASOPHIL / ABSOLUTE EOSINOPHIL / ABSOLUTE LYMPHOCYTE / ABSOLUTE MONOCYTE / ABSOLUTE SEGMENTED NEUTROPHIL / BASOPHIL / EOSINOPHIL / ERYTHROCYTE COUNT / HEMATOCRIT / HEMOGLOBIN / LEUKOCYTE COUNT / LYMPHOCYTE / MEAN CORPUSCULAR HEMOGLOBIN / MEAN CORPUSCULAR HEMOGLOBIN CONCENTRATION / MEAN CORPUSCULAR VOLUME / MONOCYTE / NEUTROPHIL / NUCLEATED RED BLOOD CELLS / PLATELET COUNT: tissue Blood; for ALANINE AMINOTRANSFERASE / ALBUMIN / ALKALINE PHOSPHATASE / ASPARTATE AMINOTRANSFERASE / BLOOD UREA NITROGEN / CARBON DIOXIDE / CHLORIDE / CHOLESTEROL / CREATINE PHOSPHOKINASE / CREATININE / GLUCOSE / LACTATE DEHYDROGENASE / LIPASE / PHOSPHORUS / POTASSIUM / SODIUM / TOTAL BILIRUBIN / TOTAL PROTEIN / URIC ACID: tissue Plasma
compound,measurement,setting,value
C[C@@H]1O[C@@H](O[C@H]2C[C@@H](O)[C@]3(CO)[C@H]4[C@H](O)C[C@]5(C)[C@@H](C6=CC(=O)OC6)CC[C@]5(O)[C@@H]4CC[C@]3(O)C2)[C@H](O)[C@H](O)[C@H]1O [OUABAIN],ABSOLUTE BASOPHIL,"72 h, time 3 day",0 CELLS/uL
same,ABSOLUTE EOSINOPHIL,"72 h, time 3 day",189.33 CELLS/uL
same,ABSOLUTE LYMPHOCYTE,"72 h, time 3 day",10886.33 CELLS/uL
same,ABSOLUTE MONOCYTE,"72 h, time 3 day",47.33 CELLS/uL
same,ABSOLUTE SEGMENTED NEUTROPHIL,"72 h, time 3 day",1443.67 CELLS/uL
same,BASOPHIL,"72 h, time 3 day",0%
same,EOSINOPHIL,"72 h, time 3 day",1.33%
same,ERYTHROCYTE COUNT,"72 h, time 3 day",5.55 x10E6/uL
same,HEMATOCRIT,"72 h, time 3 day",35.67%
same,HEMOGLOBIN,"72 h, time 3 day",13.2 G/DL
same,LEUKOCYTE COUNT,"72 h, time 3 day",12.57 x10E3/uL
same,LYMPHOCYTE,"72 h, time 3 day",86.67%
same,MEAN CORPUSCULAR HEMOGLOBIN,"72 h, time 3 day",23.77 pg
same,MEAN CORPUSCULAR HEMOGLOBIN CONCENTRATION,"72 h, time 3 day",37 G/DL
same,MEAN CORPUSCULAR VOLUME,"72 h, time 3 day",64.2 fL
same,MONOCYTE,"72 h, time 3 day",0.33%
same,NEUTROPHIL,"72 h, time 3 day",11.67%
same,NUCLEATED RED BLOOD CELLS,"72 h, time 3 day",0 /100WBC
same,PLATELET COUNT,"72 h, time 3 day",1296 x10E3/uL
same,ALANINE AMINOTRANSFERASE,"72 h, time 3 day",52.67 u/L
same,ALBUMIN,"72 h, time 3 day",4.2 G/DL
same,ALKALINE PHOSPHATASE,"72 h, time 3 day",382.67 u/L
same,ASPARTATE AMINOTRANSFERASE,"72 h, time 3 day",73.67 u/L
same,BLOOD UREA NITROGEN,"72 h, time 3 day",15 mg/dL
same,CARBON DIOXIDE,"72 h, time 3 day",27 mmol/L
same,CHLORIDE,"72 h, time 3 day",99 MEQ/L
same,CHOLESTEROL,"72 h, time 3 day",70.33 mg/dL
same,CREATINE PHOSPHOKINASE,"72 h, time 3 day",215.33 u/L
same,CREATININE,"72 h, time 3 day",0.16 mg/dL
same,GLUCOSE,"72 h, time 3 day",166.33 mg/dL
same,LACTATE DEHYDROGENASE,"72 h, time 3 day",88 u/L
same,LIPASE,"72 h, time 3 day",8 u/L
same,PHOSPHORUS,"72 h, time 3 day",12.23 mg/dL
same,POTASSIUM,"72 h, time 3 day",6.54 MEQ/L
same,SODIUM,"72 h, time 3 day",144.1 MEQ/L
same,TOTAL BILIRUBIN,"72 h, time 3 day",0.27 mg/dL
same,TOTAL PROTEIN,"72 h, time 3 day",5.93 G/DL
same,URIC ACID,"72 h, time 3 day",1.97 mg/dL
same,ABSOLUTE BASOPHIL,"120 h, time 5 day",0 CELLS/uL
same,ABSOLUTE EOSINOPHIL,"120 h, time 5 day",66.67 CELLS/uL
same,ABSOLUTE LYMPHOCYTE,"120 h, time 5 day",12127.33 CELLS/uL
same,ABSOLUTE MONOCYTE,"120 h, time 5 day",105.67 CELLS/uL
same,ABSOLUTE SEGMENTED NEUTROPHIL,"120 h, time 5 day",1600.33 CELLS/uL
same,BASOPHIL,"120 h, time 5 day",0%
same,EOSINOPHIL,"120 h, time 5 day",0.67%
same,ERYTHROCYTE COUNT,"120 h, time 5 day",5.76 x10E6/uL
same,HEMATOCRIT,"120 h, time 5 day",36.63%
same,HEMOGLOBIN,"120 h, time 5 day",13.7 G/DL
same,LEUKOCYTE COUNT,"120 h, time 5 day",13.9 x10E3/uL
same,LYMPHOCYTE,"120 h, time 5 day",88.33%
same,MEAN CORPUSCULAR HEMOGLOBIN,"120 h, time 5 day",23.77 pg
same,MEAN CORPUSCULAR HEMOGLOBIN CONCENTRATION,"120 h, time 5 day",37.4 G/DL
same,MEAN CORPUSCULAR VOLUME,"120 h, time 5 day",63.6 fL
same,MONOCYTE,"120 h, time 5 day",0.67%
same,NEUTROPHIL,"120 h, time 5 day",10.33%
same,NUCLEATED RED BLOOD CELLS,"120 h, time 5 day",0 /100WBC
same,PLATELET COUNT,"120 h, time 5 day",1337.67 x10E3/uL
same,ALANINE AMINOTRANSFERASE,"120 h, time 5 day",44 u/L
same,ALBUMIN,"120 h, time 5 day",4.3 G/DL
same,ALKALINE PHOSPHATASE,"120 h, time 5 day",417.67 u/L
same,ASPARTATE AMINOTRANSFERASE,"120 h, time 5 day",84.33 u/L
same,BLOOD UREA NITROGEN,"120 h, time 5 day",17.33 mg/dL
same,CARBON DIOXIDE,"120 h, time 5 day",25.67 mmol/L
same,CHLORIDE,"120 h, time 5 day",102.33 MEQ/L
same,CHOLESTEROL,"120 h, time 5 day",74.67 mg/dL
same,CREATINE PHOSPHOKINASE,"120 h, time 5 day",260 u/L
same,CREATININE,"120 h, time 5 day",0.26 mg/dL
same,GLUCOSE,"120 h, time 5 day",167.33 mg/dL
same,LACTATE DEHYDROGENASE,"120 h, time 5 day",187.67 u/L
same,LIPASE,"120 h, time 5 day",8.67 u/L
same,PHOSPHORUS,"120 h, time 5 day",11.83 mg/dL
same,POTASSIUM,"120 h, time 5 day",6.55 MEQ/L
same,SODIUM,"120 h, time 5 day",145.07 MEQ/L
same,TOTAL BILIRUBIN,"120 h, time 5 day",0.17 mg/dL
same,TOTAL PROTEIN,"120 h, time 5 day",6.2 G/DL
same,URIC ACID,"120 h, time 5 day",1.8 mg/dL
